Data published in patent US20230142647A1, “METHOD OF TREATING CANCER OR A BLOOD DISORDER” (priority 2021, published 2023).
Where two headings read alike, the source gives them in different places.

Tests used:
[1] = system: human NPM1/FLT3-mutated AML cells; test: single agent survival experiment in PDX model with NPM1/FLT3 mutations (Example 2); type: in vivo, mice; details: 3x/wk from day 24; for survival benefit compared to vehicle (in words): Valtrate 10 mg/kg, CAPE 50 mg/kg, selinexor 7 mg/kg by oral gavage
Protocol: FIG. 4A. Experiment plan diagram. […] THU inhibits cytidine deaminase(CDA) to prolong 5-AC half-life. Treatment was initiated at day 24 and then repeated three times a week. Mice were humanly euthanized after becoming moribund or losing 15% of their initial weight in accordance with institutional guidelines. (FIG. 4B) Survival presented as Kaplan-Meier survival analysis graph from inoculation time to distress. P values and log-rank test are calculated and plotted. […] Mean±SD.
Immunodeficient NSG mice are xenotransplanted with human NPM1/FLT3-mutated AML cells.
On day 24 mice were assigned for treatment groups (n=5 per group). The treatment groups are 1) Vehicle, 2) Valtrate 10 mg/kg by oral gavage, 3) CAPE 50 mg/kg by oral gavage, 4) selinexor 7 mg/kg by oral gavage, 5) 5-AC2 mg/kg subcutaneously, and 6) 5-AC(2 mg/kg) subcutaneously+THU (20 mg/kg) intraperitoneally. The addition of THU extends 5-AC half-life, by inhibiting the enzyme cytidine deaminase(CDA), which degrades 5-AC. Treatment started on day 24, 3×/wk. (FIG. 4A). […] Groups are compared with vehicle and with each other. To monitor progress periodic blood counts are analyzed along with distress signs.

[2] = system: AML with NPM1/FLT3 mutations cells; test: survival study of combinations in high tumor load PDX model of NPM1/FLT3 mutations (Example 4); type: in vivo, mice; details: at distress point or day 200
Text: FIG. 9A Treatment groups illustration: Primary acute myelogenous leukemia (AML) patient cells with Nucleophosmin 1 and fins-like tyrosine kinase-3 mutations (NPM1/FLT3) were xenotranplanted into immunodeficient Nod-SCID-IL-2Rgamma-null mice (NSG, Jackson Laboratory) by injecting 1×10^6 cells IV (n=5 per group) at day 0 (D0). Engraftment D28≥45% bone engraftment was confirmed in 3 randomly selected mice. At D28 mice were divided in to five treatment groups (n=5 per group), 1) Vehicle, 2) 5-AC(2 mg/kg)/THU(20 mg/kg), 3) 5-AC(2 mg/kg)/THU(20 mg/kg)/selinexor (5 mg/kg), 4) 5-AC(2 mg/kg)/THU(20 mg/kg)/CAPE (50 mg/kg) and 5) 5-AC(2 mg/kg)/THU(20 mg/kg)/Valtrate(10 mg/kg). […]
Peripheral blood analysis of WBCs, hemoglobin Hb, and platelets count. peripheral blood obtained by tail vein phlebotomy and serial blood counted on day 0, 45, 100, 140 and 200. And analyzed by HemaVet blood lab. […]
An image analysis to evaluate tumor burden of the spleens, was by histologic identification of relatively large infiltrating AML cells, replacing normal splenic structure by H&E staining of spleen sections. Image analysis of cell counts were plotted and quantified. […]
Furthermore, efficacy vs toxicity is best assessed by serial peripheral blood analysis of WBCs, hemoglobin Hb, and platelets. […] Blood samples were analyzed by HemaVet blood lab. […]

AML (NPM1-FLT3 and MLL) = type: in vivo
HL-60 cell line = test: AML HL-60 cell line cell counts and morphologic differentiation; type: cell-based; details: Valtrate 6 μM, CAPE 4 μM, 5-AC 2.5 μM, selinexor 20 nM, day 5
Protocol: Cell counts obtained using automated counter, Mean±SD (3 experiments) cell morphology obtained from the same cell culture. P<0.01 significant, t test (2 sided). The small molecule agents were used in dosages: Valtrate (6 μM), CAPE (4 μM), 5-AC (2.5 μM), selinexor (20 nM) and in the combinations relative to vehicle. cell counts (day 0-5) and morphology (day 5). (FIG. 3A) Valtrate, 5-AC, and Valtrate+5-AC cell count and morphologic changes relative to vehicle and individual agents. (FIG. 3B) CAPE, 5-AC, and CAPE+5-AC cell counts day 0-5 and morphologic changes on day 5 relative to vehicle and individual agents. (FIG. 3C) Combinational groups of 5-AC+valtrate, 5-AC+CAPE, and 5-AC+selinexor morphologic development (day 5) are compared.
The low dosages were purposed for use in combination with low dose 5-AC, Such as to position AML cells in a state of hypomethylated accessible chromatin with increased nuclear transcription factors. cell counts and morphologic alterations were observed. Dosages for this purpose were: Valtrate (6 μM), CAPE (4 μM), 5-AC (2.5 μM), and for comparing with Selinexor (20 nM) the same dosages were used for combinations.

| Compound | femoral and tibial bone appearance (white = leukemia replacement, red/dark = functional hematopoiesis) [2] | survival benefit compared to vehicle (in words) [1] | spindle shaped cells (terminal fate morphology) (HL-60 cell line) | also measured |
| --- | --- | --- | --- | --- |
| Nc1ncn([C@@H]2O[C@H](CO)[C@@H](O)[C@H]2O)c(=O)n1 [5-AC, 5-Azacytidine] | White pale bones | – | – | survival benefit ([1]; 5-AC 2 mg/kg subcutaneously, THU 20 mg/kg intraperitoneally): more than 25 days |
| O=C(/C=C/c1ccc(O)c(O)c1)OCCc1ccccc1 [CAPE, Caffeic Acid Phenethyl Ester] | – | minimal | not observed | synergy in combination with 5-AC (AML (NPM1-FLT3 and MLL); oral Valtrate 10 mg/kg 3x/wk or CAPE 50 mg/kg 3x/wk, in combination with 5-AC): effective synergetic action |
| O=C1NC(O)CCN1[C@@H]1O[C@H](CO)[C@@H](O)[C@H]1O (stereo partly shown) [THU, Tetrahydrouridine] | White pale bones | – | – | – |
| O=C(/C=C\n1cnc(-c2cc(C(F)(F)F)cc(C(F)(F)F)c2)n1)NNc1cnccn1 [selinexor] | – | minimal | not observed | – |
| Valtrate | – | minimal | – | synergy in combination with 5-AC (AML (NPM1-FLT3 and MLL); mouse, in vivo): effective synergetic action |
